{"source": "patent US7084166B2", "about": "“Bis-heterocyclic compounds with antitumour and chemosensitising activity” (Sigma-Tau Industrie Farmaceutichee Riunite S.p.A., priority 2000, dated 2006)", "assay_type_in_all_cases": "cell-based", "key": {"[1]": {"system": "NB4 cells (acute promyelocytic leukaemia)", "assay": "Cell differentiation by reduction of nitroblue tetrazolium (NBT), with suboptimal ATRA", "settings": "for AC50: Homo sapiens, NB-4, 72 h, 3 days, read-out: AC50 (concentration at which the tested compound induces 50% of cell differentiation); for AC50 / fold induction (differentiation, compound + ATRA vs ATRA alone): combined with suboptimal doses of ATRA, NBT", "method": "The first line used was the NB4 cell line, bearing the t(15;17) chromosomal translocation which generates the fusion protein PML/RARα. This line is very sensitive to the differentiative action of pharmacological doses of ATRA (10^−7–10^−6 M).\n(§1) The HL60 and NB4 cells were seeded at a density of 150,000 cells/ml in RPMI 1640 medium containing 10% foetal calf serum, and were treated with the tested compounds in the presence and absence of suboptimal doses of ATRA (5–10 nM for NB4 and 0.5 μM for HL60, respectively) in the dark, and returned to the incubator for 3 days without ever replacing the culture medium.\n(§2) To analyse the differentiative effect of the tested compounds vs ATRA, on the third day of treatment 500,000 viable cells were harvested from each sample, centrifuged for 10 minutes at 1.000 rpm and resuspended in 1 ml of RPMI 1640 medium containing 10% foetal calf serum, 1 mg/ml of nitroblue tetrazolium (NBT) and 100 ng of PMA (phorbol 12-myristate 13-acetate).\n(§3) The cells thus resuspended were incubated in the dark at 37° C. for 60 minutes.\n(§4) At the end of the incubation, the cell suspension was centrifuged for 10 minutes at 10,000 rpm; the pellet obtained was then resuspended in 1 ml of PBS containing 10% Triton X-100 and sonicated to lysis.\n(§5) Spectrophotometric readings of the samples were then taken at a wavelength of 540 nm: samples containing differentiated cells shifted towards a violet colour, whereas control samples and/or samples with non-differentiated cells were colourless or, at any rate, much less intensely coloured.\n(§6) The AC50 (Activating Concentration) is the concentration at which the tested compound induces 50% of cell differentiation.\n(§7) Fold Induction is the increase in the differentiation value of the cell sample treated with the tested compound +ATRA vs the value of the cell sample treated with ATRA alone. This value provides an indication of the ability (potency) of the tested compound to enhance ATRA induced cell differentiation."}, "[2]": {"system": "HL60 cells (acute promyelocytic leukaemia)", "assay": "Cell differentiation by reduction of nitroblue tetrazolium (NBT), with suboptimal ATRA", "settings": "combined with suboptimal doses of ATRA; for AC50: Homo sapiens, HL-60, 72 h, 3 days, read-out: AC50 (concentration at which the tested compound induces 50% of cell differentiation)", "method": "(§8) The second line used was the HL60 cell line which responds to ATRA (but is less sensitive than the NB4 cell line).\nas §1, §2, §3, §4, §5, §6, §7"}, "[3]": {"system": "NB4 cells (acute promyelocytic leukaemia)", "assay": "Flow cytofluorimetric analysis of cell cycle", "set-up": "APOPTOSIS: unit not given here", "method": "The first line used was the NB4 cell line, bearing the t(15;17) chromosomal translocation which generates the fusion protein PML/RARα.\n(§9) To assess the effect of the tested compounds on the various phases of the cell cycle, on the third day of treatment 500,000 cells were harvested, centrifuged at 1,000 rpm for 10 minutes, washed twice in PBS w/o (PBS without calcium and magnesium) and fixed in a solution of 50% PBS w/o+50% methanol/acetone (1:4 v/v) for at least 1 hour; the cells were then centrifuged as described, washed in PBS w/o and centrifuged again.\n(§10) 200 μl of propidium iodide 100 μg/ml and 200 μl of RNase 150 kU/mg were then added to the cell pellet.\n(§11) After a 30-min incubation in the dark at room temperature, the samples were analysed by flow cytofluirometry."}, "[4]": {"system": "HL60 cells (acute promyelocytic leukaemia)", "assay": "Flow cytofluorimetric analysis of cell cycle", "settings": "day 3", "method": "as §8, §1, §9, §10, §11"}, "[5]": {"settings": "compound 1 μM + ATRA 0.01 μM, day 3"}, "[6]": {"settings": "compound 1 μM + ATRA 0.01 μM, day 3, listed as ST1346"}, "[7]": {"settings": "compound 5 μM + ATRA 0.01 μM, day 3"}, "[8]": {"settings": "compound 5 μM + ATRA 0.01 μM, day 3, listed as ST1346"}, "[9]": {"settings": "compound 10 μM + ATRA 0.01 μM, day 3"}, "[10]": {"settings": "compound 10 μM + ATRA 0.01 μM, day 3, listed as ST1346"}, "[11]": {"settings": "compound 50 μM + ATRA 0.01 μM, day 3"}, "[12]": {"settings": "compound 50 μM + ATRA 0.01 μM, day 3, listed as ST1346"}}}
{"smiles": "OCCCCC(c1c[nH]c2ccccc12)c1c[nH]c2ccccc12", "note": "[ST 1346, 5-hydroxy-1,1-di-(indol-3-yl)-pentane]", "values": [{"measurement": "AC50", "setting": "[1]", "result": "1.5 ± 0.5", "unit": "µM"}, {"measurement": "fold induction (differentiation, compound + ATRA vs ATRA alone)", "setting": "[1]", "result": 3.0}, {"measurement": "dose reaching maximal effect in sensitising ATRA-induced terminal differentiation", "setting": "[1]; doses 1, 5, 10, 50 μM with suboptimal ATRA", "result": 10, "unit": "µM"}, {"measurement": "AC50", "setting": "[2]", "result": "14.8 ± 1.6", "unit": "µM"}, {"measurement": "fold induction (differentiation, compound + ATRA vs ATRA alone)", "setting": "[2]", "result": 2.7}, {"measurement": "APOPTOSIS", "setting": "[3]; [5]", "result": 17.5}, {"measurement": "G0/G1", "setting": "[3]; [5]", "result": 57.1}, {"measurement": "G2/M", "setting": "[3]; [5]", "result": 13.9}, {"measurement": "S", "setting": "[3]; [5]", "result": 29.0}, {"measurement": "APOPTOSIS", "setting": "[3]; [6]", "result": 14}, {"measurement": "G0/G1", "setting": "[3]; [6]", "result": 61.5}, {"measurement": "G2/M", "setting": "[3]; [6]", "result": 12.9}, {"measurement": "S", "setting": "[3]; [6]", "result": 25.6}, {"measurement": "APOPTOSIS", "setting": "[3]; [7]", "result": 17.0}, {"measurement": "G0/G1", "setting": "[3]; [7]", "result": 58.4}, {"measurement": "G2/M", "setting": "[3]; [7]", "result": 13.9}, {"measurement": "S", "setting": "[3]; [7]", "result": 27.7}, {"measurement": "APOPTOSIS", "setting": "[3]; [8]", "result": 13.5}, {"measurement": "G0/G1", "setting": "[3]; [8]", "result": 58.0}, {"measurement": "G2/M", "setting": "[3]; [8]", "result": 13.5}, {"measurement": "S", "setting": "[3]; [8]", "result": 28.5}, {"measurement": "APOPTOSIS", "setting": "[3]; [9]", "result": 15.0}, {"measurement": "G0/G1", "setting": "[3]; [9]", "result": 58.4}, {"measurement": "G2/M", "setting": "[3]; [9]", "result": 13.0}, {"measurement": "S", "setting": "[3]; [9]", "result": 28.6}, {"measurement": "APOPTOSIS", "setting": "[3]; [10]", "result": 13}, {"measurement": "G0/G1", "setting": "[3]; [10]", "result": 60.0}, {"measurement": "G2/M", "setting": "[3]; [10]", "result": 12.6}, {"measurement": "S", "setting": "[3]; [10]", "result": 27.4}, {"measurement": "APOPTOSIS", "setting": "[3]; [11]", "result": 10.0}, {"measurement": "G0/G1", "setting": "[3]; [11]", "result": 82.2}, {"measurement": "G2/M", "setting": "[3]; [11]", "result": 8.0}, {"measurement": "S", "setting": "[3]; [11]", "result": 9.8}, {"measurement": "APOPTOSIS", "setting": "[3]; [12]", "result": 17}, {"measurement": "G0/G1", "setting": "[3]; [12]", "result": 84.2}, {"measurement": "G2/M", "setting": "[3]; [12]", "result": 6.3}, {"measurement": "S", "setting": "[3]; [12]", "result": 9.5}, {"measurement": "APOPTOSIS", "setting": "[3]; compound alone 1 μM, day 3", "result": 23}, {"measurement": "G0/G1", "setting": "[3]; compound alone 1 μM, day 3", "result": 46.9}, {"measurement": "G2/M", "setting": "[3]; compound alone 1 μM, day 3", "result": 15.7}, {"measurement": "S", "setting": "[3]; compound alone 1 μM, day 3", "result": 37.4}, {"measurement": "APOPTOSIS", "setting": "[3]; compound alone 5 μM, day 3", "result": 24}, {"measurement": "G0/G1", "setting": "[3]; compound alone 5 μM, day 3", "result": 47.4}, {"measurement": "G2/M", "setting": "[3]; compound alone 5 μM, day 3", "result": 13.8}, {"measurement": "S", "setting": "[3]; compound alone 5 μM, day 3", "result": 38.8}, {"measurement": "APOPTOSIS", "setting": "[3]; compound alone 10 μM, day 3", "result": 23}, {"measurement": "G0/G1", "setting": "[3]; compound alone 10 μM, day 3", "result": 50.0}, {"measurement": "G2/M", "setting": "[3]; compound alone 10 μM, day 3", "result": 14.7}, {"measurement": "S", "setting": "[3]; compound alone 10 μM, day 3", "result": 35.3}, {"measurement": "APOPTOSIS", "setting": "[3]; compound alone 50 μM, day 3", "result": 46}, {"measurement": "G0/G1", "setting": "[3]; compound alone 50 μM, day 3", "result": 59.4}, {"measurement": "G2/M", "setting": "[3]; compound alone 50 μM, day 3", "result": 7.3}, {"measurement": "S", "setting": "[3]; compound alone 50 μM, day 3", "result": 33.3}, {"measurement": "effect of the compound alone on cell cycle and apoptosis (in words)", "setting": "[3]; compound alone (ST 1346: high doses)", "result": "induce growth arrest (in the G0/G1 phase of the cell cycle) and apoptosis"}]}
{"smiles": "Cn1cc(C(CCCCO)c2cn(C)c3ccccc23)c2ccccc21", "note": "[ST 1974, 5,5-bis-(1-methyl-1H-indol-3-yl)-1 Pentanol]", "values": [{"measurement": "AC50", "setting": "[1]", "result": "7.8 ± 2.6", "unit": "µM"}, {"measurement": "fold induction (differentiation, compound + ATRA vs ATRA alone)", "setting": "[1]", "result": 1.8}, {"measurement": "AC50", "setting": "[2]", "result": "9.5 ± 2.6", "unit": "µM"}, {"measurement": "fold induction (differentiation, compound + ATRA vs ATRA alone)", "setting": "[2]", "result": 1.6}, {"measurement": "G0/G1", "setting": "[4]; compound 1 μM + ATRA 0.5 μM", "result": 62.0}, {"measurement": "G2/M", "setting": "[4]; compound 1 μM + ATRA 0.5 μM", "result": 11.7}, {"measurement": "S", "setting": "[4]; compound 1 μM + ATRA 0.5 μM", "result": 26.3}, {"measurement": "G0/G1", "setting": "[4]; compound 5 μM + ATRA 0.5 μM", "result": 63.8}, {"measurement": "G2/M", "setting": "[4]; compound 5 μM + ATRA 0.5 μM", "result": 10.5}, {"measurement": "S", "setting": "[4]; compound 5 μM + ATRA 0.5 μM", "result": 25.7}, {"measurement": "G0/G1", "setting": "[4]; compound 10 μM + ATRA 0.5 μM", "result": 65.4}, {"measurement": "G2/M", "setting": "[4]; compound 10 μM + ATRA 0.5 μM", "result": 10.5}, {"measurement": "S", "setting": "[4]; compound 10 μM + ATRA 0.5 μM", "result": 24.1}, {"measurement": "G0/G1", "setting": "[4]; compound 50 μM + ATRA 0.5 μM", "result": 81.8}, {"measurement": "G2/M", "setting": "[4]; compound 50 μM + ATRA 0.5 μM", "result": 10.6}, {"measurement": "S", "setting": "[4]; compound 50 μM + ATRA 0.5 μM", "result": 7.6}, {"measurement": "G0/G1", "setting": "[4]; compound alone 1 μM", "result": 58.9}, {"measurement": "G2/M", "setting": "[4]; compound alone 1 μM", "result": 11.1}, {"measurement": "S", "setting": "[4]; compound alone 1 μM", "result": 30}, {"measurement": "G0/G1", "setting": "[4]; compound alone 5 μM", "result": 59.3}, {"measurement": "G2/M", "setting": "[4]; compound alone 5 μM", "result": 11.4}, {"measurement": "S", "setting": "[4]; compound alone 5 μM", "result": 29.3}, {"measurement": "G0/G1", "setting": "[4]; compound alone 10 μM", "result": 57.8}, {"measurement": "G2/M", "setting": "[4]; compound alone 10 μM", "result": 12.2}, {"measurement": "S", "setting": "[4]; compound alone 10 μM", "result": 30}, {"measurement": "G0/G1", "setting": "[4]; compound alone 50 μM", "result": 67.7}, {"measurement": "G2/M", "setting": "[4]; compound alone 50 μM", "result": 12.3}, {"measurement": "S", "setting": "[4]; compound alone 50 μM", "result": 20}]}
